Results published in US20210087593A1, “N-[…] ALKALOID COMPOUNDS” (Willow BioSciences Inc., priority 2017, published 2021).

Experiments:
[1] = tested on: EsNMT; assay: N-alkylation substrate screen using EsNMT (LC-MS); format: biochemical, Ephedra sinica; set-up: key to N-alkylation of substrate alkaloid compounds, Enzyme EsNMT: −=no detectable quantities of product N-alkylated compound; Trace, +, ++, +++=increasing relative levels of product N-alkylated compound; Trace, +, ++, +++=increasing relative levels of product N-alkylated compound; Trace, +, ++, +++=increasing relative levels of product N-alkylated compound; Trace, +, ++, +++=increasing relative levels of product N-alkylated compound; settings: for N-alkylation of substrate alkaloid compounds, Enzyme EsNMT: 25 μg protein, 1 mM substrate, 1 mM SAM, 60 mM HEPES pH 8, 16 hours at 37° C., relative level of N-alkylated product by LC-MS; for N-alkylated alkaloid product detected after incubation with EsNMT (SEQ. ID NO: 2): incubated in accordance with Example 1, LC-MS
Method: The EsNMT coding sequence was amplified from Ephedra sinica cDNA using gene-specific primers containing restriction sites with Q5 HiFi DNA polymerase (NEB). Restriction digests and ligations (NEB) were carried out to generate a pQE plasmid (Qiagen) for heterologous expression of HIS6-tagged recombinant EsNMT. Protein overexpression was carried out at 18° C. in Escherichia coli SG13009 (Qiagen) grown in lysogeny broth (LB) to which 0.5 mM isopropyl β-D-1-thiogalactopyranoside (IPTG) was added.
(§1) Total soluble protein was extracted from each culture and the recombinant NMTs were purified using TALON cobalt affinity resin (Clontech) followed by desalting and concentration with Amicon Ultra-30 centrifugal filters (EMD Millipore). Protein concentration was determined using the Bradford method, and purity was assessed by SDS-PAGE followed by Coomassie staining.
(§2) Forty-four nitrogenous molecules were screened as potential substrates for EsNMT using a standardized assay (25 μg protein, 1 mM substrate, 1 mM SAM, 60 mM HEPES pH 8, 16 hours at 37° C.). In addition, a representative subset was screened as potential substrates for GfCNMT, GfTNMT and PsRNMT under identical conditions. For each substrate and enzyme combination, negative control assays were carried out using protein heated to 100° C. (boiled) for 20 minutes. Assays were quenched with 9 volumes of methanol, centrifuged to pellet insoluble debris and the supernatants were stored at −20° C. prior to analysis.
(§3) Assay supernatants were analyzed by liquid chromatography-mass spectrometry (LC-MS). LC-MS analysis was performed using a 1200 HPLC coupled with a 6410 triple-quadrupole MS (Agilent). Samples (2 μl) were injected onto a Luna […] Phenyl-Hexyl 100 Å HPLC column and analytes were eluted in a gradient of solvent A (0.1% Formic acid, 5% v/v methanol in water) and solvent B (0.1% Formic acid in methanol) at a flow rate of 300 μl per minute. The gradient began at 0% B, reached 35% B by 12 minutes, then increased to 85% B at 14 min and remained at that level until 18 minutes. Subsequently, the mixture returned to 0% B over a period of 3 minutes before a final 6 minute re-equilibration period. Analytes were applied to the mass analyzer using an electrospray ionization probe operating in positive mode with the following condition: capillary voltage, 4000V; fragmentor voltage, 100V, source temperature, 350° C.; nebulizer pressure, 50 PSI; gas flow 10 L/min. Ions were detected in full scan mode where quadrupoles 1 and 2 were set to RF only, whereas the third quadrupole scanned from 100-500 m/z over 525 milliseconds. Substrate acceptance by the enzymes was determined according to the formation of a peak with a 14-m/z increase in mass, corresponding to methylated substrate and a decrease in the substrate peak area, relative to the appropriate boiled control assay.
(§4) Each of the alkaloid substrates shown in Table 1 were incubated with the following N-alkyltransferases: GfCNMT (SEQ. ID NO: 3), gfTNMT (SEQ. ID NO: 4) and Ps RNMT ([…]) and EsNMT (SEQ. ID NO: 2), as described in Example 1. The presence of N-alkylated alkaloid product was detected as described in Examples 1-20. Legend: ND=Not Determined; −=no detectable quantities of product N-alkylated compound; and Trace, +, ++, +++=increasing relative levels of product N-alkylated compound.

[2] = tested on: GfCNMT; assay: N-alkylation substrate screen using GfCNMT (LC-MS); format: biochemical, Glaucium flavum; set-up: key: −=no detectable quantities of product N-alkylated compound; Trace, +, ++, +++=increasing relative levels of product N-alkylated compound; Trace, +, ++, +++=increasing relative levels of product N-alkylated compound; Trace, +, ++, +++=increasing relative levels of product N-alkylated compound; Trace, +, ++, +++=increasing relative levels of product N-alkylated compound; settings: 25 μg protein, 1 mM substrate, 1 mM SAM, 60 mM HEPES pH 8, 16 hours at 37° C.; relative level of N-alkylated product by LC-MS
Method: (§5) The GfCNMT, GfTNMT and PsRNMT coding sequences were amplified from Glaucium flavum (GfCNMT and GfTNMT) or Papaver somniferum (PsRNMT) cDNA using gene-specific primers containing attB recombination sites with Q5 HiFi DNA polymerase (NEB). Recombination reactions were carried out using BP and LR Clonase II (Thermo Scientific) to generate individual pDONR221 entry plasmids and, subsequently, individual pHGWA plasmids for heterologous expression of polyhistidine (HIS6)-tagged recombinant GfCNMT, GfTNMT and PsRNMT. Protein overexpression was carried out at 18° C. using E. coli ArcticExpress (Agilent) grown in Studier's autoinduction media.
as §1, §2, §3, §4

[3] = tested on: GfTNMT; assay: N-alkylation substrate screen using GfTNMT (LC-MS); format: biochemical, Glaucium flavum; set-up: key: −=no detectable quantities of product N-alkylated compound; Trace, +, ++, +++=increasing relative levels of product N-alkylated compound; Trace, +, ++, +++=increasing relative levels of product N-alkylated compound; Trace, +, ++, +++=increasing relative levels of product N-alkylated compound; Trace, +, ++, +++=increasing relative levels of product N-alkylated compound; settings: 25 μg protein, 1 mM substrate, 1 mM SAM, 60 mM HEPES pH 8, 16 hours at 37° C.; relative level of N-alkylated product by LC-MS
Method: as §5, §1, §2, §3, §4

[4] = tested on: PsRNMT; assay: N-alkylation substrate screen using PsRNMT (LC-MS); format: biochemical, Papaver somniferum; set-up: key: −=no detectable quantities of product N-alkylated compound; Trace, +, ++, +++=increasing relative levels of product N-alkylated compound; Trace, +, ++, +++=increasing relative levels of product N-alkylated compound; Trace, +, ++, +++=increasing relative levels of product N-alkylated compound; Trace, +, ++, +++=increasing relative levels of product N-alkylated compound; settings: 25 μg protein, 1 mM substrate, 1 mM SAM, 60 mM HEPES pH 8, 16 hours at 37° C.; relative level of N-alkylated product by LC-MS
Method: as §5, §1, §2, §3, §4

## NCCc1ccc(O)c(O)c1 [Dopamine, dopamine]
[1]
  N-alkylation of substrate alkaloid compounds, Enzyme EsNMT: −
  N-alkylated alkaloid product detected after incubation with EsNMT (SEQ. ID NO: 2): No N-alkylated alkaloid product compounds were detected

## Oc1ccc(CC2NCCc3cc(O)c(O)cc32)cc1O (stereo not shown) [Norlaudanosoline, norlaudanosoline]
[1]
  N-alkylation of substrate alkaloid compounds, Enzyme EsNMT: −
  N-alkylated alkaloid product detected after incubation with EsNMT (SEQ. ID NO: 2): No N-alkylated alkaloid product compounds were detected

## C[C@H](N)[C@@H](O)c1ccccc1 [Norpseudoephedrine, norpseudoephedrine]
[1]
  N-alkylation of substrate alkaloid compounds, Enzyme EsNMT: +

## COc1cc(CCN)cc(OC)c1OC [Mescaline, mescaline]
[1]
  N-alkylation of substrate alkaloid compounds, Enzyme EsNMT: +
[2]
  N-alkylation of substrate alkaloid compounds, Enzyme GfCNMT: −
[3]
  N-alkylation of substrate alkaloid compounds, Enzyme GfTNMT: −
[4]
  N-alkylation of substrate alkaloid compounds, Enzyme PsRNMT: −

## Cn1cnc2c1c(=O)[nH]c(=O)n2C [Theobromine, theobromine]
[1]
  N-alkylation of substrate alkaloid compounds, Enzyme EsNMT: −
  N-alkylated alkaloid product detected after incubation with EsNMT (SEQ. ID NO: 2): No N-alkylated alkaloid product compounds were detected

## O=c1[nH]c(=O)c2ncn([C@@H]3O[C@H](CO)[C@@H](O)[C@H]3O)c2[nH]1 [Xanthosine, xanthosine]
[1]
  N-alkylation of substrate alkaloid compounds, Enzyme EsNMT: −
  N-alkylated alkaloid product detected after incubation with EsNMT (SEQ. ID NO: 2): No N-alkylated alkaloid product compounds were detected

## CC(C)NC[C@H](O)COc1cccc2ccccc12 (racemic) [Propanolol, propanolol, reference compound]
[1]
  N-alkylation of substrate alkaloid compounds, Enzyme EsNMT: +
[2]
  N-alkylation of substrate alkaloid compounds, Enzyme GfCNMT: ++
[3]
  N-alkylation of substrate alkaloid compounds, Enzyme GfTNMT: +++
[4]
  N-alkylation of substrate alkaloid compounds, Enzyme PsRNMT: +++

## N[C@@H](Cc1ccccc1)C(=O)O [Phenylalanine, phenylalanine]
[1]
  N-alkylation of substrate alkaloid compounds, Enzyme EsNMT: −
  N-alkylated alkaloid product detected after incubation with EsNMT (SEQ. ID NO: 2): No N-alkylated alkaloid product compounds were detected

## NCc1ccccc1 [Benzylamine, benzylamine]
[1]
  N-alkylation of substrate alkaloid compounds, Enzyme EsNMT: −
  N-alkylated alkaloid product detected after incubation with EsNMT (SEQ. ID NO: 2): No N-alkylated alkaloid product compounds were detected

## NCCc1ccccc1 [2-Phenylethaneamine, 2-phenylethan-1-amine]
[1]
  N-alkylation of substrate alkaloid compounds, Enzyme EsNMT: +
[2]
  N-alkylation of substrate alkaloid compounds, Enzyme GfCNMT: Trace
[3]
  N-alkylation of substrate alkaloid compounds, Enzyme GfTNMT: Trace
[4]
  N-alkylation of substrate alkaloid compounds, Enzyme PsRNMT: −

## CC(C)(N)Cc1ccccc1 [Phentermine, phentermine, reference compound]
[1]
  N-alkylation of substrate alkaloid compounds, Enzyme EsNMT: +

## COc1ccc(Cc2nccc3cc(OC)c(OC)cc23)cc1OC [Papaverine, papaverine, reference compound]
[1]
  N-alkylation of substrate alkaloid compounds, Enzyme EsNMT: Trace

## Nc1ncnc2nc[nH]c12 [Adenine, adenine]
[1]
  N-alkylation of substrate alkaloid compounds, Enzyme EsNMT: −
  N-alkylated alkaloid product detected after incubation with EsNMT (SEQ. ID NO: 2): No N-alkylated alkaloid product compounds were detected

## CC(N)c1ccccc1 (stereo not shown) [1-Phenylethaneamine, 1-phenylethan-1-amine]
[1]
  N-alkylation of substrate alkaloid compounds, Enzyme EsNMT: −
  N-alkylated alkaloid product detected after incubation with EsNMT (SEQ. ID NO: 2): No N-alkylated alkaloid product compounds were detected

## CN[C@@H](C)[C@H](O)c1ccccc1 [Ephedrine, ephedrine, reference compound]
[1]
  N-alkylation of substrate alkaloid compounds, Enzyme EsNMT: +
[2]
  N-alkylation of substrate alkaloid compounds, Enzyme GfCNMT: −
[4]
  N-alkylation of substrate alkaloid compounds, Enzyme PsRNMT: −

## CN1[C@@H]2CC[C@H]1CC(=O)C2 [Tropinone, tropinone]
[1]
  N-alkylation of substrate alkaloid compounds, Enzyme EsNMT: −
  N-alkylated alkaloid product detected after incubation with EsNMT (SEQ. ID NO: 2): No N-alkylated alkaloid product compounds were detected

## N[C@@H](Cc1ccc(O)c(O)c1)C(=O)O [3,4-dihydroxyphenylalanine]
[1]
  N-alkylation of substrate alkaloid compounds, Enzyme EsNMT: −
  N-alkylated alkaloid product detected after incubation with EsNMT (SEQ. ID NO: 2): No N-alkylated alkaloid product compounds were detected

## CNC(C)C(=O)c1ccccc1 (stereo not shown) [N-Methyl-cathinone, N-methyl-cathinone]
[1]
  N-alkylation of substrate alkaloid compounds, Enzyme EsNMT: +

## C[C@H](N)C(=O)c1ccccc1 [Cathinone, cathinone]
[1]
  N-alkylation of substrate alkaloid compounds, Enzyme EsNMT: +

## CC[C@@H]1CN2CCc3c([nH]c4cccc(OC)c34)[C@@H]2C[C@@H]1/C(=C\OC)C(=O)OC [Mitragynine, mitragynine]
[1]
  N-alkylation of substrate alkaloid compounds, Enzyme EsNMT: −
  N-alkylated alkaloid product detected after incubation with EsNMT (SEQ. ID NO: 2): No N-alkylated alkaloid product compounds were detected

## N[C@@H](Cc1ccc(O)cc1)C(=O)O [Tyrosine, tyrosine]
[1]
  N-alkylation of substrate alkaloid compounds, Enzyme EsNMT: −
  N-alkylated alkaloid product detected after incubation with EsNMT (SEQ. ID NO: 2): No N-alkylated alkaloid product compounds were detected

## CN[C@@H](C)[C@@H](O)c1ccccc1 [Pseudoephedrine, pseudoephedrine, reference compound]
[1]
  N-alkylation of substrate alkaloid compounds, Enzyme EsNMT: +

## NCC(O)c1ccc(O)cc1 (stereo not shown) [Octopamine, octopamine]
[1]
  N-alkylation of substrate alkaloid compounds, Enzyme EsNMT: −
  N-alkylated alkaloid product detected after incubation with EsNMT (SEQ. ID NO: 2): No N-alkylated alkaloid product compounds were detected

## CC1NCCc2cc(O)c(O)cc21 (stereo not shown) [THQ1, 1-methyl-6,7-dihydroxy-1,2,3,4-tetrahydroisoquinoline]
[1]
  N-alkylation of substrate alkaloid compounds, Enzyme EsNMT: +

## CNCC(O)c1ccc(O)cc1 (stereo not shown) [Synephrine, synephrine]
[1]
  N-alkylation of substrate alkaloid compounds, Enzyme EsNMT: +

## CN(C)c1ccc(C=O)cc1 [p-dimethylaminobenzaldehyde]
[1]
  N-alkylation of substrate alkaloid compounds, Enzyme EsNMT: −
  N-alkylated alkaloid product detected after incubation with EsNMT (SEQ. ID NO: 2): No N-alkylated alkaloid product compounds were detected

## NCCS(=O)(=O)O [Taurine, taurine]
[1]
  N-alkylation of substrate alkaloid compounds, Enzyme EsNMT: −
  N-alkylated alkaloid product detected after incubation with EsNMT (SEQ. ID NO: 2): No N-alkylated alkaloid product compounds were detected

## N[C@@H](Cc1c[nH]c2ccccc12)C(=O)O [Tryptophan, tryptophan]
[1]
  N-alkylation of substrate alkaloid compounds, Enzyme EsNMT: −
  N-alkylated alkaloid product detected after incubation with EsNMT (SEQ. ID NO: 2): No N-alkylated alkaloid product compounds were detected

## Nc1ccccc1C(=O)O [Anthrallic acid, anthranilic acid]
[1]
  N-alkylation of substrate alkaloid compounds, Enzyme EsNMT: −
  N-alkylated alkaloid product detected after incubation with EsNMT (SEQ. ID NO: 2): No N-alkylated alkaloid product compounds were detected

## methylephedrine
[1]
  N-alkylation of substrate alkaloid compounds, Enzyme EsNMT: +
